Source: US8686044B2, “Amide derivative, pest control agent containing the amide derivative, and use of the amide derivative” (Mitsui Chemicals Agro, Inc., priority 2008, dated 2014)

Legend:
Type in all cases: in vivo
[1] = tested on: Plutella xylostella; test: Pesticidal test against Plutella xylostella (cabbage leaf dip); conditions: foliar, 144 h, concentration 1 ppm, 2-stage larvae, examined after 6 days, 25° C., read-out: pesticidal rate
Outline: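 Cabbage leaf pieces dipped 30 s in test solution at a predetermined concentration, air-dried, then offered to 2nd-instar larvae, five per group in duplicate. Held at 25° C; living and dead larvae counted after 6 days.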

[2] = tested on: Laodelphax striatellus; test: Pesticidal test against Laodelphax striatellus (rice seedling spray); conditions: 144 h, concentration 100 ppm, 3-stage larvae, examined after 6 days, 25° C., read-out: pesticidal rate
Outline: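 Rice seedlings sprayed with 2.5 ml acetone solution of compound at a predetermined concentration, air-dried, then infested with third-stage Laodelphax striatellus larvae in capped water-containing tubes at 25 °C. Living and dead insects counted after 6 days; ten larvae per group, two replicates.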

[3] = tested on: Choristoneura magnanima; test: Pesticidal test against Choristoneura magnanima (artificial feed dip); conditions: 144 h, 2-stage larvae, examined after 6 days, 25° C., read-out: pesticidal rate; for pest or weed control at 1 ppm: concentration 1 ppm
Procedure: (§1) Pesticidal Test against Choristoneura magnanima A thinly sliced artificial feed was immersed for 30 seconds in a chemical solution in which a test compound had been prepared at a predetermined concentration, and air-dried, and then put into a 7 cm polyethylene cup having a filter paper laid on the bottom thereof, and 2-stage larvae of Choristoneura magnanima were released. They were left to stand in a thermostatic chamber at 25° C., and the numbers of the living pests and the dead pests were examined after 6 days. The test was carried out with five larvae per group in two replicates. Further, the above compound (A) was used as a comparative compound.

[4] = tested on: Musca domestica; test: Pesticidal test against Musca domestica (petri dish dry film); conditions: 24 h, concentration 100 ppm, female adults, examined after 1 day, 25° C., read-out: pesticidal rate
Outline: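 Dry film from 1 ml acetone solution of compound at a predetermined concentration, air-dried in a 9 cm petri dish; female adult flies released and dish capped. Held at 25° C; living and dead counted after 1 day. Five insects per group, two replicates.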

[5] = tested on: Spodoptera litura; test: Pesticidal test against Spodoptera litura (cabbage leaf dip); conditions: foliar, 144 h, concentration 1 ppm, 2-stage larvae, examined after 6 days, 25° C., read-out: pesticidal rate
Outline: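 Cabbage leaf pieces dipped 30 seconds in compound solution at a predetermined concentration and air-dried, then offered to second-stage larvae, five per group in two replicates. Held at 25° C. Living and dead larvae counted after 6 days.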

[6] = tested on: Helicoverpa armigera; test: Pesticidal test against Helicoverpa armigera (cabbage leaf disk dip); conditions: foliar, 72 h, concentration 1 ppm, 2-stage larvae, examined after 3 days, 25° C., read-out: pesticidal rate
Procedure: as §1, with “Helicoverpa armigera” for “Choristoneura magnanima”, “cabbage leaf disk” for “thinly sliced artificial feed”, “air-dried. The leaf disk was” for “air-dried, and then”, “6-hole plastic” for “7 cm polyethylene”, “released with one insect being released per hole.” for “released.”, “3” for “6”

[7] = tested on: Adoxophyes honmai; test: Pesticidal test against Adoxophyes honmai (artificial feed dip); conditions: 144 h, 2-stage larvae, examined after 6 days, 25° C., read-out: pesticidal rate; for pest or weed control at 10 ppm: concentration 10 ppm; for pest or weed control at 1 ppm: concentration 1 ppm
Procedure: as §1, with “Adoxophyes honmai” for “Choristoneura magnanima”

O=C(Nc1cccc(C(=O)Nc2c(Br)cc(C(F)(C(F)(F)F)C(F)(F)C(F)(F)F)cc2C(F)(F)F)c1F)c1ccc(Cl)nc1 (stereo not shown) [6-1695]
≥ 70%: pest or weed control at 1 ppm [1] | pest or weed control at 100 ppm [2] | pest or weed control at 1 ppm [3] | pest or weed control at 100 ppm [4] | pest or weed control at 1 ppm [5] | pest or weed control at 1 ppm [6] | pest or weed control at 10 ppm [7]

CN(C(=O)c1cccc(C#N)c1)c1cccc(C(=O)Nc2c(I)cc(C(F)(C(F)(F)F)C(F)(F)C(F)(F)F)cc2I)c1F (stereo not shown) [7-1358]
≥ 70%: pest or weed control at 1 ppm [1] | pest or weed control at 100 ppm [2] | pest or weed control at 1 ppm [3] | pest or weed control at 100 ppm [4] | pest or weed control at 1 ppm [5] | pest or weed control at 1 ppm [6] | pest or weed control at 1 ppm [7]

N#Cc1cccc(C(=O)Nc2cccc(C(=O)Nc3c(Br)cc(C(F)(C(F)(F)F)C(F)(F)C(F)(F)F)cc3C(F)(F)F)c2F)c1 (stereo not shown) [6-1672]
≥ 70%: pest or weed control at 1 ppm [1] | pest or weed control at 100 ppm [2] | pest or weed control at 1 ppm [3] | pest or weed control at 100 ppm [4] | pest or weed control at 1 ppm [5] | pest or weed control at 1 ppm [6] | pest or weed control at 1 ppm [7]

CN(C(=O)c1cccnc1)c1cccc(C(=O)Nc2c(I)cc(C(F)(C(F)(F)F)C(F)(F)F)cc2C(F)(F)F)c1F [7-1764]
≥ 70%: pest or weed control at 1 ppm [1] | pest or weed control at 100 ppm [2] | pest or weed control at 1 ppm [3] | pest or weed control at 100 ppm [4] | pest or weed control at 1 ppm [5] | pest or weed control at 1 ppm [6] | pest or weed control at 1 ppm [7]

CN(C(=O)c1ccc(F)cc1)c1cccc(C(=O)Nc2c(I)cc(C(F)(C(F)(F)F)C(F)(F)C(F)(F)F)cc2C(F)(F)F)c1F (stereo not shown) [7-1811]
≥ 70%: pest or weed control at 1 ppm [1] | pest or weed control at 100 ppm [2] | pest or weed control at 1 ppm [3] | pest or weed control at 100 ppm [4] | pest or weed control at 1 ppm [5] | pest or weed control at 1 ppm [6] | pest or weed control at 1 ppm [7]

CN(C(=O)c1cccc(F)c1)c1cccc(C(=O)Nc2c(I)cc(C(F)(C(F)(F)F)C(F)(F)C(F)(F)F)cc2C(F)(F)F)c1F (stereo not shown) [7-1810]
≥ 70%: pest or weed control at 1 ppm [1] | pest or weed control at 100 ppm [2] | pest or weed control at 1 ppm [3] | pest or weed control at 100 ppm [4] | pest or weed control at 1 ppm [5] | pest or weed control at 1 ppm [6] | pest or weed control at 1 ppm [7]

CN(C(=O)c1cccc(C#N)c1)c1cccc(C(=O)Nc2c(Br)cc(C(F)(C(F)(F)F)C(F)(F)C(F)(F)F)cc2C(F)(F)F)c1 (stereo not shown) [7-366]
≥ 70%: pest or weed control at 1 ppm [1] | pest or weed control at 1 ppm [3] | pest or weed control at 100 ppm [4] | pest or weed control at 1 ppm [5] | pest or weed control at 1 ppm [6] | pest or weed control at 1 ppm [7]

O=C(Nc1cccc(C(=O)Nc2c(C(F)(F)F)cc(C(F)(C(F)(F)F)C(F)(F)F)cc2C(F)(F)F)c1F)c1ccccc1 [6-2110, 3-benzamide-2-fluoro-N-(4-(perfluoropropan-2-yl)-2,6-bis(trifluoromethyl)phenyl)benzamide]
≥ 70%: pest or weed control at 1 ppm [1] | pest or weed control at 100 ppm [2] | pest or weed control at 10 ppm ([3]; concentration 10 ppm) | pest or weed control at 100 ppm [4] | pest or weed control at 1 ppm [5] | pest or weed control at 1 ppm [6] | pest or weed control at 10 ppm [7]

O=C(Nc1cccc(C(=O)Nc2c(I)cc(C(F)(C(F)(F)F)C(F)(F)C(F)(F)F)cc2C(F)(F)F)c1F)c1ccccc1F (stereo not shown) [6-1809]
≥ 70%: pest or weed control at 1 ppm [1] | pest or weed control at 100 ppm [2] | pest or weed control at 1 ppm [3] | pest or weed control at 100 ppm [4] | pest or weed control at 1 ppm [5] | pest or weed control at 1 ppm [6] | pest or weed control at 1 ppm [7]

CN(C(=O)c1ccccc1)c1cccc(C(=O)Nc2c(I)cc(C(F)(C(F)(F)F)C(F)(F)C(F)(F)F)cc2C(F)(F)F)c1F (stereo not shown) [7-1808]
≥ 70%: pest or weed control at 1 ppm [1] | pest or weed control at 100 ppm [2] | pest or weed control at 1 ppm [3] | pest or weed control at 100 ppm [4] | pest or weed control at 1 ppm [5] | pest or weed control at 1 ppm [6] | pest or weed control at 1 ppm [7]

CN(C(=O)c1cccc(F)c1)c1cccc(C(=O)Nc2c(Br)cc(C(F)(C(F)(F)F)C(F)(F)C(F)(F)F)cc2C(F)(F)F)c1 (stereo not shown) [7-348]
≥ 70%: pest or weed control at 1 ppm [1] | pest or weed control at 100 ppm [2] | pest or weed control at 1 ppm [3] | pest or weed control at 100 ppm [4] | pest or weed control at 1 ppm [5] | pest or weed control at 1 ppm [6] | pest or weed control at 1 ppm [7]

N#Cc1cccc(C(=O)Nc2cccc(C(=O)Nc3c(I)cc(C(F)(C(F)(F)F)C(F)(F)C(F)(F)F)cc3C(F)(F)F)c2F)c1 (stereo not shown) [6-1828]
≥ 70%: pest or weed control at 1 ppm [1] | pest or weed control at 100 ppm [2] | pest or weed control at 1 ppm [3] | pest or weed control at 100 ppm [4] | pest or weed control at 1 ppm [5] | pest or weed control at 1 ppm [6] | pest or weed control at 1 ppm [7]

N#Cc1cccc(C(=O)Nc2cccc(C(=O)Nc3c(Br)cc(C(F)(C(F)(F)F)C(F)(F)C(F)(F)F)cc3C(F)(F)F)c2)c1 (stereo not shown) [6-366]
≥ 70%: pest or weed control at 1 ppm [1] | pest or weed control at 1 ppm [3] | pest or weed control at 100 ppm [4] | pest or weed control at 1 ppm [5] | pest or weed control at 1 ppm [6] | pest or weed control at 1 ppm [7]

CN(C(=O)c1ccccc1)c1cccc(C(=O)Nc2c(Br)cc(C(F)(C(F)(F)F)C(F)(F)C(F)(F)F)cc2C(F)(F)F)c1F (stereo not shown) [7-1652]
≥ 70%: pest or weed control at 1 ppm [1] | pest or weed control at 100 ppm [2] | pest or weed control at 1 ppm [3] | pest or weed control at 100 ppm [4] | pest or weed control at 1 ppm [5] | pest or weed control at 1 ppm [6] | pest or weed control at 1 ppm [7]

O=C(Nc1c(I)cc(C(F)(C(F)(F)F)C(F)(F)C(F)(F)F)cc1I)c1cccc(NC(=O)c2ccccc2F)c1 (stereo not shown) [6-72]
≥ 70%: pest or weed control at 1 ppm [1] | pest or weed control at 100 ppm [2] | pest or weed control at 1 ppm [3] | pest or weed control at 100 ppm [4] | pest or weed control at 1 ppm [5] | pest or weed control at 1 ppm [6] | pest or weed control at 1 ppm [7]

CN(C(=O)c1cc(C#N)cc(C#N)c1)c1cccc(C(=O)Nc2c(Br)cc(C(F)(C(F)(F)F)C(F)(F)F)cc2C(F)(F)F)c1F [7-1605]
≥ 70%: pest or weed control at 1 ppm [1] | pest or weed control at 100 ppm [2] | pest or weed control at 1 ppm [3] | pest or weed control at 1 ppm [5] | pest or weed control at 1 ppm [6] | pest or weed control at 1 ppm [7]

O=C(Nc1cccc(C(=O)Nc2c(I)cc(C(F)(C(F)(F)F)C(F)(F)F)cc2I)c1F)c1ccc(F)cc1 [6-1263]
≥ 70%: pest or weed control at 1 ppm [1] | pest or weed control at 100 ppm [2] | pest or weed control at 1 ppm [3] | pest or weed control at 1 ppm [5] | pest or weed control at 1 ppm [6] | pest or weed control at 1 ppm [7]

O=C(Nc1cccc(C(=O)Nc2c(Br)cc(C(F)(C(F)(F)F)C(F)(F)C(F)(F)F)cc2C(F)(F)F)c1F)c1ccc(F)cc1 (stereo not shown) [6-1655]
≥ 70%: pest or weed control at 1 ppm [1] | pest or weed control at 100 ppm [2] | pest or weed control at 1 ppm [3] | pest or weed control at 1 ppm [5] | pest or weed control at 1 ppm [6] | pest or weed control at 1 ppm [7]

O=C(Nc1c(I)cc(C(F)(C(F)(F)F)C(F)(F)C(F)(F)F)cc1I)c1cccc(NC(=O)c2cccnc2Cl)c1 (stereo not shown) [6-90]
≥ 70%: pest or weed control at 1 ppm [1] | pest or weed control at 100 ppm [2] | pest or weed control at 1 ppm [3] | pest or weed control at 1 ppm [5] | pest or weed control at 1 ppm [6] | pest or weed control at 1 ppm [7]

O=C(Nc1cccc(C(=O)Nc2c(Br)cc(C(F)(C(F)(F)F)C(F)(F)F)cc2Br)c1F)c1ccccc1 [6-1104]
≥ 70%: pest or weed control at 1 ppm [1] | pest or weed control at 100 ppm [2] | pest or weed control at 1 ppm [3] | pest or weed control at 1 ppm [5] | pest or weed control at 1 ppm [6] | pest or weed control at 10 ppm [7]

CN(C(=O)c1ccc(F)nc1)c1cccc(C(=O)Nc2c(Br)cc(C(F)(C(F)(F)F)C(F)(F)F)cc2C(F)(F)F)c1F [7-1616]
≥ 70%: pest or weed control at 1 ppm [1] | pest or weed control at 100 ppm [2] | pest or weed control at 1 ppm [3] | pest or weed control at 1 ppm [5] | pest or weed control at 1 ppm [6] | pest or weed control at 10 ppm [7]
